Experimental data taken from article PMC6173406, “Design and evaluation of selective butyrylcholinesterase inhibitors based on Cinchona alkaloid scaffold” (PLoS ONE, 2018).
Read-outs that look alike come from different tables or passages of the source.

Columns and labels:
human BChE = target: T1, human BChE (Homo sapiens, UniProt P06276); assay: Reversible inhibition of human BChE, Ellman method with ATCh, Hunter-Downs analysis; type: biochemical; parameters: key to BChE type of inhibition: c, n and m stands for competitive, noncompetitive and mixed type of inhibition; c, n and m stands for competitive, noncompetitive and mixed type of inhibition; c, n and m stands for competitive, noncompetitive and mixed type of inhibition; settings: for BChE Ks: enzyme-substrate (ATCh) dissociation constant derived from the inhibition kinetics with the compound; for Ki(AChE)/ Ki (BChE): inhibition selectivity, ratio of Ki constants for AChE and BChE; for BChE inhibition potency compared to CD-Met: fold more potent than CD-Met; for BChE affinity lower compared to CD-(pBr): fold lower affinity than CD-(pBr)
T1 construct: gift of Dr. F. Nachon (Département de Toxicologie, Armed Forces Biomedical Research Institute, France)
Experimental: (§1) Purified human BChE and recombinant human AChE were kindly provided by Dr. F. Nachon (Département de Toxicologie, Armed Forces Biomedical Research Institute, France). The concentration of enzymes (BChE: 5.6 μM; AChE: 0.20 μM) was determined as described previously. The concentrated stocks of enzymes were diluted in a phosphate sodium buffer 0.1 M (pH 7.4) containing 0.1% BSA.
(§2) Enzyme activities were measured spectrophotometrically by Ellman method at 412 nm using 0.30 mM DTNB as thiol reagent and ATCh (0.050–0.50 mM) as substrate in 0.1 M phosphate buffer, pH 7.4 [29, 30]. For the inhibition, the reaction mixture also contained cinchonidines or cinchonines (final concentrations 0.020–200 μM, depending on compound). In the case of compounds CD-(pCl) and CN-(pCl), the final content of DMSO was the same in enzyme activity measurement and in inhibition measurements, up to 0.32%. No side interactions of tested compounds with ATCh or DTNB were detected. Measurements were done at 25 °C on a Tecan Infinite M200Pro plate reader (Austria).
(§3) The reversible inhibition of BChE and AChE by cinchonines and cinchonidines was measured by determining the decrease of enzyme activity towards ATCh (0.050–0.50 mM) in their presence. The activities of the enzymes were measured at different substrate concentrations ([S]) in the absence (v0) and presence (vi) of given cinchonines and cinchonidines concentration ([I]) selected to inhibit the enzymes for 20–80%. At least three concentrations of inhibitors for each substrate concentration were used in at least two experiments. The apparent dissociation inhibition constant (Ki,app) was calculated using the Hunter-Downs equation and the linear regression analysis: Ki,app=vi/v0−vi⋅[I]=K(I)+K(I)/K(S)⋅[S] where y-intercept determines the enzyme-inhibitor dissociation constants (K(I)), while x-intercept determines the enzyme-substrate dissociation constant, K(S). The equation was used with the assumption that the substrate, due to relatively low substrate concentrations used in experiments, binds only to the catalytic site, while inhibitor can bind to both sites catalytic and peripheral site. In other words, if the inhibitor competes with substrate for binding to the catalytic site of the enzyme, Ki,app proportionally depend on the substrate concentration. […] The curve means that the inhibitor binds not only to the catalytic or peripheral site but also to intermediates of Michaelis type of the enzyme-substrate complex.

human AChE = target: T2, human AChE (Homo sapiens, UniProt P22303); assay: Reversible inhibition of human AChE, Ellman method with ATCh, Hunter-Downs analysis; type: biochemical; parameters: key to AChE type of inhibition: c, n and m stands for competitive, noncompetitive and mixed type of inhibition; c, n and m stands for competitive, noncompetitive and mixed type of inhibition; c, n and m stands for competitive, noncompetitive and mixed type of inhibition; settings: for Ki: enzyme-inhibitor dissociation constant ± standard error, ATCh 0.050–0.50 mM, pH 7.4, 25 °C; for AChE type of inhibition: symbol in brackets after Ki; for AChE Ks: enzyme-substrate (ATCh) dissociation constant derived from the inhibition kinetics with the compound
T2 construct: gift of Dr. F. Nachon (Département de Toxicologie, Armed Forces Biomedical Research Institute, France)
Experimental: as §1, §2, §3

[1] = enzyme-inhibitor dissociation constant ± standard error, ATCh 0.050–0.50 mM, pH 7.4, 25 °C
[2] = substrate concentrations higher than 0.35 mM, deviation from linearity in Hunter-Downs plot
[3] = ratio of Ki of cinchonine to Ki of the pseudo-enantiomeric cinchonidine

T1 sequence (P06276 29-602): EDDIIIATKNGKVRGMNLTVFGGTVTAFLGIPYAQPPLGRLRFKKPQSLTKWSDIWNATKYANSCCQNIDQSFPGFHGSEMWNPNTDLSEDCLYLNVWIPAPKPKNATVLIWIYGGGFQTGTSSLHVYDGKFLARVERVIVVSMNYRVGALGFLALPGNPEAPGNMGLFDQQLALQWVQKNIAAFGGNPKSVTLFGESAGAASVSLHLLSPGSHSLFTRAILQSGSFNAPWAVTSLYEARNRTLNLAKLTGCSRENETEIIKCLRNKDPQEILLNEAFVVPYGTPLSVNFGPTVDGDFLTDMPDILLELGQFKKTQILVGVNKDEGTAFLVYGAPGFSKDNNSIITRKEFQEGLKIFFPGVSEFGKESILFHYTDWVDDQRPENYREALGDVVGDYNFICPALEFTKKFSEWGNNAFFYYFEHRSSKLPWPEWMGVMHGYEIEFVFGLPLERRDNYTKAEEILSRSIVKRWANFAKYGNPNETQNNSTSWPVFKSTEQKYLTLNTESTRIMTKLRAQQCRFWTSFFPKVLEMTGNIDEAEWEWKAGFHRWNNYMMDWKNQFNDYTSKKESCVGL
T2 sequence (P22303 32-614): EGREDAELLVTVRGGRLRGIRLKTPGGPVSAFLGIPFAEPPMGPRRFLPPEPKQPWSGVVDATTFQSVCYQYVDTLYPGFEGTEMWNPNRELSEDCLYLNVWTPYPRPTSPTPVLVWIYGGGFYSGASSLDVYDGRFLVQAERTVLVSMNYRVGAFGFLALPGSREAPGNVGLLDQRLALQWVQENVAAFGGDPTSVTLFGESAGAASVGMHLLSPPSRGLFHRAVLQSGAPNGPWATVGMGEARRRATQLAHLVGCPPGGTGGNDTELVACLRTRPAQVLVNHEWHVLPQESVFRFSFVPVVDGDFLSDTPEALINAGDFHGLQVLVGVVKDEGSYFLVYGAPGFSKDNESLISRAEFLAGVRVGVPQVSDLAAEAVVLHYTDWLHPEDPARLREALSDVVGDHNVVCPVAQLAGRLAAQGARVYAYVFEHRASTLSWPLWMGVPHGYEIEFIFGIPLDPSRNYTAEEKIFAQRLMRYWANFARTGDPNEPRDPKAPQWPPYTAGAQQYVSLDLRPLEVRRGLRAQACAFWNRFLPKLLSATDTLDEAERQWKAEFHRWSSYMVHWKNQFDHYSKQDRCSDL

Compound | Ki (human BChE; [1]) [µM] | BChE Ks (human BChE) [mM] | Ki(AChE)/ Ki (BChE) (human BChE) | BChE type of inhibition (human BChE; [2]) | BChE type of inhibition (human BChE; symbol in brackets after Ki) | Ki (human AChE) [µM] | AChE type of inhibition (human AChE) | BChE inhibition potency compared to CD-Met (human BChE) | Ki (human BChE) [µM] | AChE Ks (human AChE) [mM] | AChE stereoselectivity Ki(CN/CD) (human AChE; [3]) | BChE affinity lower compared to CD-(pBr) (human BChE) | AChE affinity lower than for the highest-affinity compounds (human AChE; compared to CD-(mNO2) and CD-(mCH3)) [times] | BChE binding preference para- over meta-positioned substituent (human BChE; para compound compared to meta compound) [times] | BChE stereoselectivity Ki(CN/CD) (human BChE; [3])
C=CC1C[N+]2(Cc3ccc(Cl)cc3)CCC1CC2C(O)c1ccnc2ccccc12 (centres unmarked) [CN-(pCl)] | 6.2 ± 0.8 | 0.49 ± 0.12 | 6.4 | mixed inhibition | m | 40 ± 4 | n | – | – | – | – | – | – | – | –
C=CC1C[N+]2(Cc3ccc([N+](=O)[O-])cc3)CCC1CC2C(O)c1ccnc2ccccc12 (centres unmarked) [CD-(pNO2)] | 6 ± 0.5 | 0.38 ± 0.05 | 5.9 | – | c | 36 ± 2 | n | only five times higher | – | – | – | – | – | – | –
C=CC1C[N+]2(Cc3ccc(Cl)cc3)CCC1CC2C(O)c1ccnc2ccccc12 (centres unmarked) [CD-(pCl)] | 0.1 ± 0.01 | 0.42 ± 0.05 | 350 | – | c | 37 ± 4 | n | – | ≤ 0.1 | – | – | – | – | – | –
C=CC1C[N+]2(Cc3ccccc3)CCC1CC2C(O)c1ccnc2ccccc12 (centres unmarked) [CD-Bzl] | 0.075 ± 0.007 | 0.27 ± 0.03 | 200 | – | c | 15 ± 2 | m | – | ≤ 0.1 | 0.78 ± 0.3 | – | – | – | – | –
C=CC1C[N+]2(Cc3cccc(Cl)c3)CCC1CC2C(O)c1ccnc2ccccc12 (centres unmarked) [CD-(mCl), N-(3-chlorobenzyl) cinchonidinium chloride] | 0.24 ± 0.01 | 0.53 ± 0.05 | 95 | – | m | 23 ± 1 | c | – | – | 0.74 ± 0.08 | – | – | – | – | –
C=CC1C[N+]2(Cc3ccc(C)cc3)CCC1CC2C(O)c1ccnc2ccccc12 (centres unmarked) [CN-(pCH3), N-(4-methylbenzyl) cinchoninium bromide] | 3.1 ± 0.3 | 0.33 ± 0.05 | 13 | – | c | 42 ± 2 | c | – | – | 2.0 ± 0.2 | – | – | – | – | –
C=CC1C[N+]2(Cc3cccc(C)c3)CCC1CC2C(O)c1ccnc2ccccc12 (centres unmarked) [CD-(mCH3), N-(3-methylbenzyl) cinchonidinium bromide] | 0.077 ± 0.006 | 0.52 ± 0.08 | 39 | – | m | 3 ± 0.3 | m | – | ≤ 0.1 | 0.63 ± 0.14 | 16 | – | – | – | –
C=CC1C[N+]2(Cc3ccc([N+](=O)[O-])cc3)CCC1CC2C(O)c1ccnc2ccccc12 (centres unmarked) [CN-(pNO2)] | 7.6 ± 0.7 | 0.32 ± 0.04 | 6.6 | – | c | 51 ± 2 | n | – | – | – | – | – | – | – | –
C=CC1C[N+]2(C)CCC1CC2C(O)c1ccnc2ccccc12 (centres unmarked) [CN-Met] | 29 ± 4 | 0.35 ± 0.07 | – | – | c | 42 ± 4 | c | – | – | 0.32 ± 0.05 | – | approximately 730 times | – | – | –
C=CC1C[N+]2(Cc3ccccc3)CCC1CC2C(O)c1ccnc2ccccc12 (centres unmarked) [CN-Bzl] | 2.9 ± 0.3 | 0.29 ± 0.04 | 42 | – | c | 121 ± 12 | m | – | – | 1.1 ± 0.4 | – | – | ~50 | – | –
C=CC1C[N+]2(Cc3cccc(Cl)c3)CCC1CC2C(O)c1ccnc2ccccc12 (centres unmarked) [CN-(mCl)] | 5.4 ± 0.5 | 0.63 ± 0.12 | 10 | – | m | 56 ± 8 | c | – | – | 0.19 ± 0.03 | – | – | – | – | –
C=CC1C[N+]2(C)CCC1CC2C(O)c1ccnc2ccccc12 (centres unmarked) [CD-Met] | 26 ± 4 | 0.70 ± 0.22 | – | – | c | 67 ± 6 | c | – | – | 0.70 ± 0.17 | – | approximately 730 times | – | – | –
C=CC1C[N+]2(Cc3ccc(Br)cc3)CCC1CC2C(O)c1ccnc2ccccc12 (centres unmarked) [CD-(pBr), N-para-bromobenzyl cinchonidinium bromide] | 0.038 ± 0.005 | 0.34 ± 0.07 | 510 | – | c | 19 ± 1 | m | 700 times | ≤ 0.1 | 2.2 ± 0.524 | – | – | – | 16 | 92
C=CC1C[N+]2(Cc3cccc(Br)c3)CCC1CC2C(O)c1ccnc2ccccc12 (centres unmarked) [CN-(mBr)] | 2.3 ± 0.2 | 0.48 ± 0.09 | 17 | – | m | 39 ± 2 | m | – | – | 0.73 ± 0.08 | – | – | – | – | –
C=CC1C[N+]2(Cc3ccc(C)cc3)CCC1CC2C(O)c1ccnc2ccccc12 (centres unmarked) [CD-(pCH3)] | 0.17 ± 0.02 | 0.38 ± 0.06 | 99 | mixed inhibition | m | 16 ± 1 | c | – | – | 1.3 ± 0.2 | – | – | – | – | –
C=CC1C[N+]2(Cc3cccc([N+](=O)[O-])c3)CCC1CC2C(O)c1ccnc2ccccc12 (centres unmarked) [CD-(mNO2), N-(3-nitrobenzyl) cinchonidinium bromide] | 4.7 ± 0.4 | 0.62 ± 0.1 | – | – | m | 2.5 ± 0.2 | c | only five times higher | – | 1.0 ± 0.2 | – | – | – | – | –
C=CC1C[N+]2(Cc3cccc(Br)c3)CCC1CC2C(O)c1ccnc2ccccc12 (centres unmarked) [CD-(mBr), N-(3-bromobenzyl) cinchonidinium bromide] | 0.6 ± 0.03 | 0.50 ± 0.05 | 33 | – | m | 20 ± 1 | m | 44 times | – | 0.91 ± 0.08 | – | – | – | – | –
